Source: PubChem BioAssay AID179 (DTP/NCI, 2004)
pEC50, pIC50: −log10 of the molar value. Calls of active or inactive are those of the source.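 Rule for the calls: active = compounds giving half or more protection of infected cells from virus-caused growth loss, again on retest; inactive = the rest.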

System: CEM cells HIV-1 protection, formazan growth assay
Experiment: NCI AIDS Antiviral Assay
Conditions: for pIC50: measured here: growth of uninfected CEM cells
Procedure, shortened: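 Protection of CEM cells against HIV-1 measured as cell growth via soluble formazan read-out, with five concentrations tested on both infected and uninfected cells; failure to protect may reflect toxicity.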

CC(C)=CC(Cc1ccccc1)S(=O)(=O)c1nc2ccccc2s1 (stereo not given) showed a pEC50 of less than 3.70 and a pIC50 of 5.00.

O=C(Cc1ccccc1)NN1C(=O)C(Cl)C1c1ccc(Cl)cc1 (stereo not given) gave a pEC50 of less than 3.99 and a pIC50 of less than 3.99.

CC(=O)OC1CC2C(CCC3(C)C(OC(C)=O)CCC23)c2c(OS(=O)(=O)c3ccccc3)ccc(C)c21 (stereo not given) showed a pEC50 of less than 4.00 and a pIC50 of less than 4.00.

COC(=O)C1=C(OC)C(C(=O)OC)C23CCCC12C(C(=O)OC)C(OC)C3C(=O)OC (stereo not given) was tested, and the pEC50 was less than 3.87 and the pIC50 was less than 3.87.

Compound COc1ccc(CC(=O)NCCc2ccc(OC)c(OC)c2)cc1Br has a pEC50 of less than 3.50 and a pIC50 of less than 3.50.

With NS(=O)(=O)c1ccc(NC(=O)c2cccc3c(=O)c4ccccc4[nH]c23)cc1 the outcome was “inactive”.

For O=C1c2ccccc2C(=O)c2c1cccc2-n1nnc2cc(Cl)c(Cl)cc21, the outcome was “inactive”.

Compound CCC(=C(C#N)C#N)c1cc(OC)c(OC)c(OC)c1 has a pEC50 of less than 4.58 and a pIC50 of less than 4.58.

For O=C(Nc1ccc(Cl)c(Cl)c1)C(=O)C(C1OC(=O)c2ccccc21)[N+](=O)[O-] (stereo not given), the pEC50 was less than 4.06 and the pIC50 was less than 4.06.

CCCCCCC(O)CCCCCCCCCCC(=O)OCC(COC(=O)CCCCCCCCCCC(O)CCCCCC)OC(=O)CCCCCCCCCCC(O)CCCCCC (stereo not given) was tested, and the pEC50 was less than 4.00 and the pIC50 was less than 4.00.

Compound O=C1C(Cl)N(c2ccccc2Cl)C1c1c[nH]c2ccccc12 (stereo not given) has a pEC50 of less than 3.40 and a pIC50 of less than 3.70.

Compound O=[N+]([O-])C(C=C(n1nnc2ccccc21)n1nnc2ccccc21)=C(n1nnc2ccccc21)n1nnc2ccccc21 has a pEC50 of less than 3.70 and a pIC50 of less than 3.70.

CCOCc1c(C)cc(C)c(C2C(C(=O)c3ccccc3)N3c4ccccc4C=CC3C2(C#N)C(=O)OCC)c1C (stereo not given) gave a pEC50 of less than 3.70 and a pIC50 of 4.47.

With COC(=O)[C@H](NC(=O)OC(C)(C)C)[C@H]1COC(C)(C)O1 the pEC50 was less than 3.70 and the pIC50 was less than 3.70.

OCc1cn(C(c2ccccc2)(c2ccccc2)c2ccccc2)cn1 was tested, and the pEC50 was 3.71 and the pIC50 was less than 3.70.

With O=C1NCN(c2ccccc2)C12CCN(CCCSc1ccc(F)cc1)CC2 the pEC50 was less than 3.70 and the pIC50 was 4.74.

Work on CC(=O)NC1CCC(NC(=O)OC(C)(C)C)C(NC(=O)OC(C)(C)C)C1 (stereo not given) yielded a pEC50 of less than 3.70 and a pIC50 of less than 3.70.

Compound O=C(OCC(Cl)(Cl)Cl)N1CC[C@H](C2CCCCC2)C1 has a pEC50 of less than 3.70 and a pIC50 of 4.30.

Work on CN(C)CCCCNc1c2c(nc3c(Cl)cccc13)CCC2 yielded a pEC50 of less than 3.10 and a pIC50 of 4.78.

In the case of CCN(CC)C(=O)N1CCN(C=S)CC1, the pEC50 was less than 3.10 and the pIC50 was less than 3.10.

In the case of CN(C)C(C(N)=O)c1ccc(Cl)cc1 (stereo not given), the outcome was “inactive”.

In the case of CCCCCCCCCCCC(=O)Nc1ccc(SSc2ccc(NC(=O)CCCCCCCCCCC)cc2)cc1, the pEC50 was less than 3.70 and the pIC50 was less than 3.70.

CCn1c(=O)c(N=O)c(N)n(CCO)c1=O gave a pEC50 of less than 3.70 and a pIC50 of less than 3.70.

With CC1CCOc2ccc(cc2)C=Nc2ccc(cc2)CCc2ccc(cc2)N=Cc2ccc(cc2)OCC1 (stereo not given) the pEC50 was less than 3.70 and the pIC50 was less than 3.70.

COc1ccc2c(c1)-c1nn(CCCN(C)C)c3ccc([N+](=O)[O-])c(c13)N2 was tested, and the pEC50 was less than 3.27, the outcome was “inactive” and the pIC50 was 6.77.

Work on Cn1cnc2nc[nH]c2c1=N yielded a pEC50 of less than 3.70 and a pIC50 of less than 3.70.

CC(=O)N(C(C)=O)c1c(C)cc(-c2ccccc2)oc1=O gave a pEC50 of less than 3.70 and a pIC50 of less than 3.70.

c1ccc(C2=NOC3(c4ccccc4)CC(c4cccs4)Sc4ccccc4N23)cc1 (stereo not given) showed a pEC50 of less than 3.70 and a pIC50 of 4.15.

C/C=C(/I)CBr gave a pEC50 of less than 3.02 and a pIC50 of 3.32.

Compound C(=C\c1ccc2ccccc2n1)/c1ccc2c(c1)OCO2 has a pEC50 of less than 3.70 and a pIC50 of less than 3.70.

In the case of O=C(Nc1ccc(Cl)cc1)C(=O)Nc1ccc(Cl)cc1, the pEC50 was less than 3.70 and the pIC50 was less than 3.70.

In the case of O=C1C=C(N2CCCCC2)c2cnccc2C1=O, the outcome was “inactive”.

CCCC(O)[C@@H](O)c1ccc2c(c1O)C(=O)c1c(OC)cccc1C2=O (stereo not given in full) was tested, and the outcome was “inactive”.

In the case of O=C(COc1ccc2c(=O)cc(-c3ccccc3)oc2c1)N1CCN(c2ccccc2)CC1, the pEC50 was less than 4.79 and the pIC50 was less than 4.79.

O=c1c(Cc2ccccc2)c(O)cc2n1CCC2 was tested, and the pEC50 was less than 3.83 and the pIC50 was less than 3.83.

For C1=CC(=P(c2ccccc2)(c2ccccc2)c2ccccc2)C=C1, the outcome was “inactive”.

Cc1ccc(S(=O)(=O)N/N=C2\CC(C)OC3=C2CCCCCC3)cc1 (stereo not given) was tested, and the pEC50 was less than 3.70 and the pIC50 was 4.47.

In the case of CCOC(=O)c1c2ccc(/C=C/c3ccccn3)ccc-2c(C(=O)OCC)c1N, the pEC50 was less than 5.17 and the pIC50 was less than 5.17.

In the case of O=[N+]([O-])[O-].O=[N+]([O-])[O-].[Au].[Au].c1ccc([P-]c2ccccc2)cc1.c1ccc([P-]c2ccccc2)cc1, the pEC50 was less than 5.37 and the pIC50 was less than 5.37.

COC(=O)C(C)(NC(=O)C(CC(=O)OC(C)(C)C)NC(=O)OC(C)(C)C)c1ccccc1 (stereo not given) was tested, and the pEC50 was less than 3.70 and the pIC50 was less than 4.00.

CCCCCCCCCCCCCCCCCC(=O)OCC1OC(OC)C(NC(=O)N(CCCl)N=O)C(O)C1O (stereo not given) showed a pEC50 of less than 5.06 and a pIC50 of less than 5.06.

COc1ccc(-n2c(N)c(C#N)c(C#N)c2-c2ccccc2)cc1 gave a pEC50 of less than 3.70 and a pIC50 of 4.92.

O=C1CCC(N2C(=O)C3C4CCC(O4)C3C2=O)C(=O)N1 (stereo not given) showed a pEC50 of less than 3.70 and a pIC50 of less than 3.70.

Compound O=C1OCCOCCSCCOCCOC(=O)c2cccc1n2 has a pEC50 of less than 3.27 and a pIC50 of 4.43.

Compound Nc1ccn(C2OC(CO)C(F)C2F)c(=O)n1 (stereo not given) has a pEC50 of less than 3.30 and a pIC50 of less than 3.30.

COC(=O)C(C(=O)C(=O)Nc1nc(=S)[nH][nH]1)c1csc(-n2nc(-c3ccccc3)cc2-c2ccccc2)n1 (stereo not given) was tested, and the pEC50 was less than 4.16 and the pIC50 was less than 4.16.

CCCCCCCCCCCCCCCCOCC(COP(=O)([O-])OCC[n+]1ccc(N(C)C)cc1)OCC (stereo not given) was tested, and the pEC50 was less than 3.70 and the pIC50 was 4.18.

O=C1N=CN=C2C=CC(Cl)=C(I)C12 (stereo not given) gave a pEC50 of less than 4.07 and a pIC50 of less than 4.07.

Compound CCCCCCCCCCCCCCCCCCN(C)C has a pEC50 of less than 3.70 and a pIC50 of 4.01.

In the case of CCOC(=O)/C(=N\O)C1=CSC2=NNC(C)(C)N12, the pEC50 was less than 3.70 and the pIC50 was 3.94.

O=c1cnn2c(n1)OC1C(O)C(CO)OC12 (stereo not given) showed a pEC50 of less than 3.70 and a pIC50 of 4.72.

For COC1=C2C=[N+](C)C3C(=C2C=CC1OC)Cc1cc2c(cc13)OCO2 (stereo not given), the pEC50 was less than 3.20 and the pIC50 was 5.44.

In the case of CCOC(=O)/C(=C\c1cccc(Br)c1)P(=O)(OCC)OCC, the pEC50 was less than 4.04 and the pIC50 was 5.22.

Compound NCC(O)c1cc(I)c(Oc2ccc(O)cc2)c(I)c1 (stereo not given) has a pEC50 of less than 3.70 and a pIC50 of 4.81.

With CN(C)CN(C)c1nc(N(C)C)nc(N(C)CN(C)C)n1 the pEC50 was less than 3.70 and the pIC50 was 4.49.

Cc1onc(-c2c(Cl)cccc2Cl)c1C(=O)SC1=NC(C)N2C(SC(=O)c3c(-c4c(Cl)cccc4Cl)noc3C)=NC(C)N12 (stereo not given) showed a pEC50 of less than 4.72 and a pIC50 of 4.74.

With CCCCCCCCCCCCCCCC(=O)OCCOCCOCCOCc1ccccc1 the outcome was “inactive”.

For COc1ccc(-c2oc3cc(-c4cc5oc(-c6ccc(OC)cc6)c(-c6ccc(OC)cc6)c5cc4OC)c(OC)cc3c2-c2ccc(OC)cc2)cc1, the pEC50 was less than 3.70 and the pIC50 was less than 3.70.

For CC(C)(C)[Si](C)(C)OCC1OC(n2cc(I)c(N)nc2=O)C(O[Si](C)(C)C(C)(C)C)C1O[Si](C)(C)C(C)(C)C (stereo not given), the pEC50 was less than 3.70 and the pIC50 was 5.17.

Compound Cc1cc(=O)oc2c(CNC(CC(C)C)C(=O)O)c(O)ccc12 (stereo not given) has a pEC50 of less than 3.70 and a pIC50 of less than 3.70.

O=C1/C(=C/c2cccc([N+](=O)[O-])c2)CCc2ccccc21 gave a pEC50 of less than 5.01 and a pIC50 of less than 5.01.

CC12CCC(CC1=O)C2(C)CCC(N)=O (stereo not given) gave a pEC50 of less than 3.70 and a pIC50 of less than 3.70.

Compound CN=C1OC2(c3ccccc3)C3=C(OC(=NC)N2C)C(=O)OC3(c2ccccc2)N1C (stereo not given) has a pEC50 of less than 3.70 and a pIC50 of 3.83.
